The target in assay [1] is T1, human glucagon receptor (Glucagon-R) (Homo sapiens, UniProt P47871).
T1 construct: expressed in transfected cells
Briefly: Glucagon receptor efficacy assay (cAMP AlphaScreen, CHO cells). The assay is classed as cell-based. The note with it: cAMP formation, CHO cells expressing human Glucagon-R; read-out: EC50 hGCGR CHO-K1. Here is the method:
(§1) The mammalian expression vectors encoding the Glucagon-R or the GLP-1-R were transfected into Chinese hamster ovary (CHO) cells by the Attractene method. Stably expressing clones were obtained by Zeocin selection (250 μg/mL) upon limited dilution of cells resistant to the selection pressure. […] One Glucagon-R expressing clone and one GLP-1-R expressing clone were chosen for compound profiling.
(§2) CHO cells expressing the human Glucagon-R, or human GLP-1-R were seeded 24 hours prior to the assay at 30,000 cells per well in 96-well microtiter plates in culture in 100 μl growth medium. On the day of analysis, growth medium was removed and the cells were washed once with 200 μl of assay buffer (Krebs-Ringer-buffer—KRBH). The buffer was removed and the cells were incubated for 15 min at room temperature in 10 μl KRBH (KRBH+10 mM HEPES, 5 mM NaHCO3, 0.1% (V/V) BSA) with 0.1 mM IBMX in deionized water containing increasing concentrations of test peptides. The reaction was stopped by the addition of lysis buffer (0.1% w/v BSA, 5 mM HEPES, 0.3% v/v Tween-20). After cell lysis for 10 min at room temperature, lysates were transferred to 384-well plates and 10 μl of acceptor/donorbead mixture as contained in the AlphaScreen™ cAMP Functional Assay Kit was added. After one hour of incubation at room temperature in the dark, the cAMP content was determined applying the AlphaScreen™ cAMP Functional Assay Kit from Perkin-Elmer according to manufacturer instructions. […] The GLP-1/glucagon ratio is calculated as defined earlier.
On the technique in general: Bead proximity is the source of the signal in Alpha formats.

Assay [2] has as its target T2, human glucagon-like peptide 1 receptor (GLP-1R) (Homo sapiens, UniProt P43220).
T2 construct: expressed in transfected cells
Briefly: GLP-1 receptor efficacy assay (cAMP AlphaScreen, CHO cells). It is filed as cell-based. The note with it: for Ratio GLP-1/Glucagon: EC50 [GLP-1R] / EC50 [Glucagon-R], human receptors in CHO-K1; for EC50: cAMP formation, CHO cells expressing human GLP-1-R, read-out: EC50 hGLP-1R CHO-K1. Here is the method:
as §1, §2

The target in assay [3] is human glucagon receptor (Glucagon-R) (human, UniProt P47871 26-477). Put plainly: cell-based or functional assay.
Sequence of human glucagon receptor (Glucagon-R) (human, UniProt P47871 26-477) (P47871 26-477): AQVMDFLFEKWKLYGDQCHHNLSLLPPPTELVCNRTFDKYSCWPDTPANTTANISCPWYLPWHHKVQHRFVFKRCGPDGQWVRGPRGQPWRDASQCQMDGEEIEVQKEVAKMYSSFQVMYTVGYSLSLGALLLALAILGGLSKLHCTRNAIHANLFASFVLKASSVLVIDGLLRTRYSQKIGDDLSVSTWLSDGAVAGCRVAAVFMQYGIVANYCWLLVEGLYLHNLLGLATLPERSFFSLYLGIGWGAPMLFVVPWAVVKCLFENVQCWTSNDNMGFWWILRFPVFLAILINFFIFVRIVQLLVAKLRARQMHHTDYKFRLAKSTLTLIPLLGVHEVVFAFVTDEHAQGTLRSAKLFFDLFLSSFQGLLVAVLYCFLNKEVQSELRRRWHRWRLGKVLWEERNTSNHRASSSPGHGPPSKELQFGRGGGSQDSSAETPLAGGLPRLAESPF
In assay [4] the target is human glucagon-like peptide 1 receptor (GLP-1R) (human, UniProt P43220 24-463). Put plainly: cell-based or functional assay.
Assay [5] concerns the target endogenous glucagon receptor of primary rat hepatocytes (rat, UniProt P30082 27-485). Put plainly: cell-based or functional assay.
The target in assay [6] is T3, endogenous GLP-1 receptor of a murine insulinoma cell line (murine, UniProt O35659 22-463).
T3 sequence (looked up): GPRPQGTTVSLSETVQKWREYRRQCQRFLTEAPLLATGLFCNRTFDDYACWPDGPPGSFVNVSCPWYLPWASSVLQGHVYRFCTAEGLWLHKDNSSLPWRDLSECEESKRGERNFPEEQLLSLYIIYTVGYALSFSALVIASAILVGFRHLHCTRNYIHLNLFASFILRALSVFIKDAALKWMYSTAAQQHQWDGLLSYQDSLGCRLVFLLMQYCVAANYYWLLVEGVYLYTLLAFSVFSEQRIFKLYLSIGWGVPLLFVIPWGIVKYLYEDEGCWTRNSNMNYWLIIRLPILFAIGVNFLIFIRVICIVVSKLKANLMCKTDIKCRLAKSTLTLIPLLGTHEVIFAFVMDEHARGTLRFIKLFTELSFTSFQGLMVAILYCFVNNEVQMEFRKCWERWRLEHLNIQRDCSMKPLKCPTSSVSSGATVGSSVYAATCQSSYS
Put plainly: cell-based or functional assay.

Starred links: 1 amine or outer side, 2 acyl side, 3 side chain; linkers in the order of their positions; H or OH if unused. Non-standard residues stand in square brackets, D forms with d. Residues, ends and D or L forms follow the SMILES beside them. Groups on a side chain read outwards from the residue. *: point of attachment. γGlu = O=C(O)[C@H](CCC(=O)[*:2])N[*:1]; Palmitoyl = CCCCCCCCCCCCCCCC(=O)*; Ac4c = NC1(C(=O)O)CCC1

T2 sequence (P43220 24-463): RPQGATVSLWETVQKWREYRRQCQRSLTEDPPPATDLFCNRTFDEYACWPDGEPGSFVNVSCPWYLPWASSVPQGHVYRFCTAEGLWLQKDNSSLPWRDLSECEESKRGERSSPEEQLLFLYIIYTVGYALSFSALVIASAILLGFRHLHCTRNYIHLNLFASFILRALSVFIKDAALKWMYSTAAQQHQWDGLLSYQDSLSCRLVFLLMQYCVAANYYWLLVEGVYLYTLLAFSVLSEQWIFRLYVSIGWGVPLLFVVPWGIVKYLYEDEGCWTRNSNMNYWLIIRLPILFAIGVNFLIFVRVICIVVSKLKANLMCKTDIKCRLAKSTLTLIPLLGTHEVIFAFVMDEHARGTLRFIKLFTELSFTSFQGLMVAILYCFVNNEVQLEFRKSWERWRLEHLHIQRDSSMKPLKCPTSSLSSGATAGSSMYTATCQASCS
T1 sequence (P47871 26-477): as the sequence (P47871 26-477) above
Sequence of endogenous glucagon receptor of primary rat hepatocytes (P30082 27-485): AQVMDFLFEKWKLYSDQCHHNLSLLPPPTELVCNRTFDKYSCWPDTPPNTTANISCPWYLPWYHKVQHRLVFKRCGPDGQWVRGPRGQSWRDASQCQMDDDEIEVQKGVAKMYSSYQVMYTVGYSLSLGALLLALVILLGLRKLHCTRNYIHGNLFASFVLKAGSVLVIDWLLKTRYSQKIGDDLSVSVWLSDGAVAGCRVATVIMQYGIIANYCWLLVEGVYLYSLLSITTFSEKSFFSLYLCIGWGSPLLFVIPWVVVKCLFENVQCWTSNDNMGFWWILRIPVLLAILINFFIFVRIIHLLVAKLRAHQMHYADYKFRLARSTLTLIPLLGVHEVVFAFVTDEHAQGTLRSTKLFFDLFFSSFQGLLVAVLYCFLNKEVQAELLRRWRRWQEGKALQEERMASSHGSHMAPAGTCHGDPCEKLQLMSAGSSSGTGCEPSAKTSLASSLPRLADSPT

As to `CCCCCCCCCCCCCCCC(=O)N[C@@H](CCC(=O)NCCCC[C@H](NC(=O)[C@H](CCC(=O)O)NC(=O)[C@H](CC(=O)O)NC(=O)[C@H](CC(C)C)NC(=O)[C@H](Cc1ccc(O)cc1)NC(=O)[C@H](CCCCN)NC(=O)[C@H](CO)NC(=O)[C@H](Cc1ccc(O)cc1)NC(=O)[C@H](CC(=O)O)NC(=O)[C@H](CO)NC(=O)[C@@H](NC(=O)[C@H](Cc1ccccc1)NC(=O)[C@@H](NC(=O)CNC(=O)[C@H](Cc1c[nH]cn1)NC(=O)C1(NC(=O)[C@@H](N)Cc2c[nH]cn2)CCC1)[C@@H](C)O)[C@@H](C)O)C(=O)N[C@@H](C)C(=O)N[C@@H](C)C(=O)N[C@@H](CCCCN)C(=O)N[C@@H](CC(=O)O)C(=O)N[C@@H](Cc1ccccc1)C(=O)N[C@H](C(=O)N[C@@H](CCC(=O)O)C(=O)N[C@@H](Cc1c[nH]c2ccccc12)C(=O)N[C@@H](CC(C)C)C(=O)N[C@@H](CCC(=O)O)C(=O)N[C@@H](CO)C(=O)N[C@@H](C)C(N)=O)[C@@H](C)CC)C(=O)O` [Compound 15], the 50% effective concentration (EC50) (as a rule, the concentration at which the effect is half-maximal) in assay [1] came out at 100 pM.

`CCCCCCCCCCCCCCCC(=O)N[C@@H](CCC(=O)NCCCC[C@H](NC(=O)[C@H](CO)NC(=O)[C@H](CC(=O)O)NC(=O)[C@H](CC(C)C)NC(=O)[C@H](Cc1ccc(O)cc1)NC(=O)[C@H](CCCCN)NC(=O)[C@H](CO)NC(=O)[C@H](Cc1ccc(O)cc1)NC(=O)[C@H](CC(=O)O)NC(=O)[C@H](CO)NC(=O)[C@@H](NC(=O)[C@H](Cc1ccccc1)NC(=O)[C@@H](NC(=O)CNC(=O)[C@H](Cc1c[nH]cn1)NC(=O)[C@H](CO)NC(=O)[C@@H](N)Cc1c[nH]cn1)[C@@H](C)O)[C@@H](C)O)C(=O)N[C@@H](C)C(=O)N[C@@H](C)C(=O)N[C@@H](Cc1c[nH]cn1)C(=O)N[C@@H](CC(=O)O)C(=O)N[C@@H](Cc1ccccc1)C(=O)N[C@H](C(=O)N[C@@H](CCC(=O)O)C(=O)N[C@@H](Cc1c[nH]c2ccccc12)C(=O)N[C@@H](CC(C)C)C(=O)N[C@@H](CC(C)C)C(=O)N[C@@H](CO)C(=O)N[C@@H](C)C(N)=O)C(C)C)C(=O)O` [Compound 5] (H-HSHGTFTSDYSKYLDSK([γGlu-Palmitoyl])AAHDFVEWLLSA-NH2): in assay [2], the “Ratio GLP-1/Glucagon” value is 2.25 and the EC50 was determined as 270 pM. Besides, the concentration for a half-maximal effect (EC50) in assay [1] stood at 120 pM.

Regarding `CCCCCCCCCCCCCCCC(=O)N[C@@H](CCC(=O)NCCCC[C@H](NC(=O)[C@H](CCC(=O)O)NC(=O)[C@H](CC(=O)O)NC(=O)[C@H](CC(C)C)NC(=O)[C@H](Cc1ccc(O)cc1)NC(=O)[C@H](CCCCN)NC(=O)[C@H](CO)NC(=O)[C@H](Cc1ccc(O)cc1)NC(=O)[C@H](CC(=O)O)NC(=O)[C@H](CO)NC(=O)[C@@H](NC(=O)[C@H](Cc1ccccc1)NC(=O)[C@@H](NC(=O)CNC(=O)[C@H](CCC(N)=O)NC(=O)[C@H](CC)NC(=O)[C@@H](N)Cc1c[nH]cn1)[C@@H](C)O)[C@@H](C)O)C(=O)N[C@@H](C)C(=O)N[C@@H](C)C(=O)N[C@@H](CCCCN)C(=O)N[C@@H](CC(=O)O)C(=O)N[C@@H](Cc1ccccc1)C(=O)N[C@H](C(=O)N[C@@H](CCC(=O)O)C(=O)N[C@@H](Cc1c[nH]c2ccccc12)C(=O)N[C@@H](CC(C)C)C(=O)N[C@@H](CCC(=O)O)C(=O)N[C@@H](CO)C(=O)N[C@@H](C)C(N)=O)[C@@H](C)CC)C(=O)O` [Compound 10], in assay [2], the “Ratio GLP-1/Glucagon” value amounted to 2.7 and the EC50 turned out to be 270 pM. Besides, in assay [1], the EC50 stood at 100 pM.

`CCCCCCCCCCCCCCCC(=O)N[C@@H](CCC(=O)NCCCC[C@H](NC(=O)[C@H](CO)NC(=O)[C@H](CC(=O)O)NC(=O)[C@H](CC(C)C)NC(=O)[C@H](Cc1ccc(O)cc1)NC(=O)[C@H](CCCCN)NC(=O)[C@H](CO)NC(=O)[C@H](Cc1ccc(O)cc1)NC(=O)[C@H](CC(=O)O)NC(=O)[C@H](CO)NC(=O)[C@@H](NC(=O)[C@H](Cc1ccccc1)NC(=O)[C@@H](NC(=O)CNC(=O)[C@H](CCC(N)=O)NC(=O)C1(NC(=O)[C@@H](N)Cc2c[nH]cn2)CCC1)[C@@H](C)O)[C@@H](C)O)C(=O)N[C@@H](C)C(=O)N[C@@H](C)C(=O)N[C@@H](Cc1c[nH]cn1)C(=O)N[C@@H](CC(=O)O)C(=O)N[C@@H](Cc1ccccc1)C(=O)N[C@H](C(=O)N[C@@H](CCC(=O)O)C(=O)N[C@@H](Cc1c[nH]c2ccccc12)C(=O)N[C@@H](CC(C)C)C(=O)N[C@@H](CC(C)C)C(=O)N[C@@H](CO)C(=O)N[C@@H](C)C(N)=O)C(C)C)C(=O)O` [Compound 4]: the “Ratio GLP-1/Glucagon” value in assay [2] turned out to be 2.59. In addition, in assay [1], the 50% effective concentration (EC50) stood at 120 pM.

B1: Compound 4: H-H-Ac4c-QGTFTSDYSKYLDS-K(Hexadecanoyl-isoGlu)-AAHDFVEWLLSA-NH2 (peptide)
peptide: H-H[Ac4c]QGTFTSDYSKYLDSK([γGlu-Palmitoyl])AAHDFVEWLLSA-NH2
SMILES: CCCCCCCCCCCCCCCC(=O)N[C@@H](CCC(=O)NCCCC[C@H](NC(=O)[C@H](CO)NC(=O)[C@H](CC(=O)O)NC(=O)[C@H](CC(C)C)NC(=O)[C@H](Cc1ccc(O)cc1)NC(=O)[C@H](CCCCN)NC(=O)[C@H](CO)NC(=O)[C@H](Cc1ccc(O)cc1)NC(=O)[C@H](CC(=O)O)NC(=O)[C@H](CO)NC(=O)[C@@H](NC(=O)[C@H](Cc1ccccc1)NC(=O)[C@@H](NC(=O)CNC(=O)[C@H](CCC(N)=O)NC(=O)C1(NC(=O)[C@@H](N)Cc2c[nH]cn2)CCC1)[C@@H](C)O)[C@@H](C)O)C(=O)N[C@@H](C)C(=O)N[C@@H](C)C(=O)N[C@@H](Cc1c[nH]cn1)C(=O)N[C@@H](CC(=O)O)C(=O)N[C@@H](Cc1ccccc1)C(=O)N[C@H](C(=O)N[C@@H](CCC(=O)O)C(=O)N[C@@H](Cc1c[nH]c2ccccc12)C(=O)N[C@@H](CC(C)C)C(=O)N[C@@H](CC(C)C)C(=O)N[C@@H](CO)C(=O)N[C@@H](C)C(N)=O)C(C)C)C(=O)O
For the molecule B1, the “EC50 hGCGR CHO-K1 [nM] (cAMP, AlphaScreen)” value in assay [3] stood at 0.12 nM. In assay [4], the “EC50 hGLP-1R CHO-K1 [nM] (cAMP, AlphaScreen)” value turned out to be 0.31 nM. Besides, the “EC50 [nM] (inhibition of glycogen synthesis rate in primary rat hepatocytes)” value in assay [5] came out at 0.37 nM. Besides, in assay [6], the “EC50 [nM] (cAMP in murine insulinoma cell line)” value worked out at 0.32 nM.

Source of the values: patent US9988429B2, “Glucagon analogues” (Zealand Pharma A/S, priority 2013, dated 2018).
